The record followed here is ChEMBL document CHEMBL1201862, “PubChem BioAssay data set” (2004).

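Compound exposure: 48 hours, 5 concentrations, 96-well plates. GI50 is the concentration that inhibits growth by half.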 Calls of active or inactive are those of the source. No stated cut-off is given here; in the data, active = GI50 up to about 1.1 µM and inactive = higher.

Holding throughout (assay): DTP human tumour cell line panel, 48 h
For test [1], the system named is A498.
Test [2] relates to HCC 2998.
Test [3] relates to HOP-62.
Test [4] relates to HOP-92.
For test [5], the system named is HT-29.
The test system of test [6] is K562.
The subject of test [7] is Malme-3M.
In test [8] the test system is NCI-H460.
For test [9], the system named is NCI-H522.
Test [10] concerns NCI/ADR-RES.
Test [11] concerns OVCAR-4.
In test [12] the test system is SF-268.
The test system of test [13] is SK-MEL-28.
For test [14], the system named is SNB-75.
Test [15] relates to U-251.
Test [16] has as its system 786-0.
Test [17] deals with M14.
For test [18], the system named is SR.
Test [19] concerns MDA-MB-231.
Test [20] concerns PC-3.

In the case of `COc1ccc(C2C3CCCC(C3=O)C(c3ccc(OC)cc3)N2N=O)cc1` (stereo not drawn), the GI50 (in general, the concentration at which growth is held to half of that of the control) was 15.2 µM (inactive) in test [1]; 28.9 µM (inactive) in test [2]; 38.5 µM (inactive) in test [3]; 41.7 µM (inactive) in test [4]; 21.4 µM (inactive) in test [5]; 23.9 µM (inactive) in test [6]. The GI50 in test [7] is 7.85 µM (inactive); in [8] it was 20.6 µM (inactive); in test [9], 17.1 µM (inactive); in test [10], 32.4 µM (inactive); in [11] it was 21.7 µM (inactive); in test [12] it was 48.5 µM (inactive). Also, the values for the GI50 in test [13], in test [14] and in test [15] were 40.3 µM (inactive), 26.5 µM (inactive) and 40.6 µM (inactive), respectively.

Take `CCOC(=O)C(=O)Nc1cc(Cl)ccc1Cl`: the GI50 in [16], in test [1], in test [2], in [3], in test [4] and in test [5] was > 100 µM (inactive) in each case. The GI50 in test [6], in test [17], in [7], in test [8], in test [9] and in test [11] was > 100 µM (inactive) in each case. For the same compound, the GI50 in test [12] was > 100 µM (inactive); in test [13], > 100 µM (inactive); in test [14] it was 34.2 µM (inactive); in test [18] it was > 100 µM (inactive); in test [15], > 100 µM (inactive).

On to `COc1cccc2c1C(=O)c1c(O)c3c(c(O)c1C2=O)C[C@@](O)(C(C)=O)CC3S(=O)(=O)O` (stereo partly drawn), for which the GI50 in [16], in test [1], in test [2], in [3], in test [4] and in test [5] was > 100 µM (inactive) each time. The GI50 in [6], in [17], in [7], in [8], in [9] and in test [11] was > 100 µM (inactive) in each case. The GI50 in test [12] was > 100 µM (inactive); in [13], > 100 µM (inactive); in test [14], > 50.5 µM (inactive); in [18] it was > 84.1 µM (inactive); in test [15] it was > 100 µM (inactive).

Consider `CSCC[C@@H]1C(=O)N(C)[C@H](C(C)(C)C)N1C(=O)c1ccccc1`, for which the GI50 in test [1] is > 100 µM (inactive); in test [2] it was > 100 µM (inactive); in test [3] it was > 100 µM (inactive); in test [4], > 100 µM (inactive); in test [5], > 81.5 µM (inactive); in test [6], > 100 µM (inactive). Further, the GI50 in test [7], in test [8], in test [9], in test [10], in test [11] and in [12] was > 100 µM (inactive) throughout. Further, the GI50 in test [13], in test [14] and in test [15] was > 100 µM (inactive) throughout.

Regarding `NC1=NN(c2ccccc2)C(=O)C1C(=O)C(=O)Nc1ccc(Cl)cc1` (stereo not drawn), the GI50 in test [16], in test [1], in test [2], in test [3], in test [4] and in test [5] was > 100 µM (inactive) each time. Besides, the GI50 in test [6], in test [17], in test [7], in [8], in [9] and in test [11] was > 100 µM (inactive) throughout. In addition, the GI50 in test [12], in test [13], in test [14], in test [18] and in test [15] was > 100 µM (inactive) each time.

Consider `CC1=C[C@]2(O)C(=O)[C@H](C)C[C@H]3[C@@H](CC[C@@](C)(O)/C=C\2C1=O)C3(C)C`, for which the GI50 in test [16] was 18.9 µM (inactive); in test [1], 27.4 µM (inactive); in test [2], 30.3 µM (inactive); in test [3], > 49.8 µM (inactive); in test [4], 23 µM (inactive); in test [5], 28.4 µM (inactive). For the same compound, the GI50 in test [6] was > 100 µM (inactive); in test [17] it was 17.3 µM (inactive); in test [7], 22.8 µM (inactive); in [8] it was 25.5 µM (inactive); in test [9], 13.7 µM (inactive); in test [11], 23.6 µM (inactive). In addition, the GI50 was 20.7 µM (inactive) in test [12]; 18.5 µM (inactive) in test [13]; 33.3 µM (inactive) in test [14]; 16 µM (inactive) in [18]; 21.7 µM (inactive) in [15].

With `Cc1cc(C)nc(NS(=O)(=O)c2ccc(Nc3c4ccccc4nc4c(C(=O)Nc5ccc(S(=O)(=O)Nc6cc(C)on6)cc5)cccc34)cc2)n1`, the GI50 in test [16] was 18.5 µM (inactive); in test [1], 19.2 µM (inactive); in test [2] it was 16.8 µM (inactive); in test [3], 21.2 µM (inactive); in test [4], 18.7 µM (inactive); in [5] it was 19.9 µM (inactive). The GI50 is 23.2 µM (inactive) in test [6]; 20.8 µM (inactive) in [17]; 24.2 µM (inactive) in [7]; 25.1 µM (inactive) in test [8]; 14.7 µM (inactive) in test [9]; 22.6 µM (inactive) in [11]. For the same compound, the GI50 was 24.2 µM (inactive) in test [12]; 23.6 µM (inactive) in [13]; 32.3 µM (inactive) in [14]; 27.5 µM (inactive) in test [18]; 19.8 µM (inactive) in test [15].

With `ClC1CCC2OOC1O2` (stereo not drawn), the GI50 in [16] is > 100 µM (inactive); in test [1] it was > 100 µM (inactive); in [2], > 100 µM (inactive); in test [3], > 100 µM (inactive); in [4] it was > 100 µM (inactive); in test [5] it was 89.5 µM (inactive). The GI50 in test [6], in test [17], in [7], in [8], in [9] and in test [11] was > 100 µM (inactive) each time. In addition, the GI50 in [12] is > 100 µM (inactive); in test [13], > 100 µM (inactive); in test [14], 82.2 µM (inactive); in test [18] it was > 100 µM (inactive); in test [15], > 100 µM (inactive).

For the compound `CC(C)C1=CC23CCC4C(C)(C(=O)O)CCCC4(C)C2CC1C1C(=O)N(CCCCCCN2C(=O)C4C5CC6C7(C)CCCC(C)(C(=O)O)C7CCC6(C=C5C(C)C)C4C2=O)C(=O)C13` (stereo not drawn), the GI50 in test [16] is > 10 µM (inactive); in [1], 11.6 µM (inactive); in test [2], 12.7 µM (inactive); in test [3] it was > 10 µM (inactive); in [4], 21.7 µM (inactive); in test [5], 3.84 µM (inactive). The GI50 in test [6] was 16.6 µM (inactive); in [17], 11 µM (inactive); in [19], 15.3 µM (inactive); in [7], 16.7 µM (inactive); in test [9] it was 12 µM (inactive); in test [11] it was 15.7 µM (inactive). Moreover, the GI50 in [20] is 5.9 µM (inactive); in test [12], 13.4 µM (inactive); in [13] it was 11.3 µM (inactive); in test [18], 7.43 µM (inactive); in test [15], 4.08 µM (inactive).

Take `CCC1CN2CCC3(c4ccccc4)CC(C(=O)OC)=CC1C23` (stereo not drawn): the GI50 was 17.2 µM (inactive) in test [16]; 18.6 µM (inactive) in test [1]; 16.7 µM (inactive) in test [2]; 19.2 µM (inactive) in test [3]; 11.7 µM (inactive) in [4]; 16.7 µM (inactive) in test [5]. Besides, the GI50 is 9.46 µM (inactive) in test [6]; 14.8 µM (inactive) in test [17]; 15.9 µM (inactive) in test [7]; 17.7 µM (inactive) in [8]; 14.1 µM (inactive) in test [9]; 14.5 µM (inactive) in [11]. The GI50 in test [12] is 14.3 µM (inactive); in test [13] it was 17.7 µM (inactive); in [14], 17.3 µM (inactive); in test [18], 41.3 µM (inactive); in test [15], 16.3 µM (inactive).

Consider `CCCCCCCC/C=C/CCCCCCCC(=O)N(O)C1CC(n2cc(C)c(=O)[nH]c2=O)OC1CO` (stereo not drawn), for which the GI50 was 4.46 µM (inactive) in test [16]; 18.3 µM (inactive) in [1]; 10.6 µM (inactive) in [2]; 6.25 µM (inactive) in test [3]; 13.8 µM (inactive) in test [4]; 10.2 µM (inactive) in [5]. The GI50 in [6] was 0.488 µM (active); in test [17], 3.55 µM (inactive); in test [7], 9.71 µM (inactive); in [8] it was 3.85 µM (inactive); in test [9] it was 7.76 µM (inactive); in [11] it was 11.2 µM (inactive). Moreover, the GI50 in test [12] is 11 µM (inactive); in test [13], 4.51 µM (inactive); in test [14] it was 12.1 µM (inactive); in test [18], 3.27 µM (inactive); in [15], 4.89 µM (inactive).
